“And” between values parts separate entries of the source, which are not always exact repeats. Equal values may be shown once. Read-outs that look alike come from different tables or passages of the source.
Columns and labels:
[1] = tested on: C57BL/6 mice; assay: PXR target gene expression in C57BL/6 mice after FKK6 gavage; type: in vivo, mouse; details: for Cyp3a11 fold expression / mdr1 fold expression: Fig 4d
Method: (§1) (Scheer et al, 2010) were administered 10% DMSO (n = 3) or FKK6 (n = 3) in 3 or 5 doses, with each dose interval of 12 h. Each gavage dose volume was 100 μl. 2–4 h after the dosing period, mice were sacrificed, and tissues were harvested for further analysis. The mouse studies were performed three independent times over an 18‐month period. All purchased mice were acclimatized in the Einstein vivarium for ~ 2 weeks before experiments started. […]. The room temperature was maintained at 25 ± 2°C with 55 ± 5% humidity. All studies were approved by the Institute of Animal Studies at the Albert Einstein College of Medicine, INC (IACUC # 20160706, 20160701 and preceding protocols), and specific animal protocols were also approved by additional protocols (IACUC# 20170406, 20170504) and Animal Care and Use Review Office (ACURO) of the US Army Medical Research and Materiel Command (PR160167, W81XWH‐17‐1‐0479). […]
(§2) Mouse small, large intestine and liver samples were collected and total RNAs were […]
(§3) isolated. […] Each tissue PCR was […]
(§4) repeated in quadruplicate. The expression was normalized to internal control, GAPDH. ( b,d) The histograms show mean (95 %CI) values, c, mean (SD) and two way ANOVA followed with Tukey's post hoc test. The entire experiment was repeated n = 3 for reproducibility. The data shown is one representative experiment .

[2] = tested on: mdr1a; assay: as above; type: in vivo, mouse; details: both sexes, C57BL/6J, mouse, 500 μM, 5 doses (60 h), individual mice
Method: as §1, §2, §3, §4

[3] = tested on: Cyp3a11; assay: as above; type: in vivo, mouse; details: both sexes, C57BL/6J, mouse, 500 μM, 5 doses (60 h), individual mice
Method: as §1, §2, §3, §4

[4] = target: PKAC-alpha (Homo sapiens, UniProt P17612); assay: KINOMEscan select kinase screen; type: binding; details: two experiments
Method: (§5) Kinase Assays. The kinase inhibition assays were conducted by DiscoverX on a platform assay by Ambit BioSciences as described previously 16,17. FKK6 was screened at a single concentration of 10 […]
(§6) The assays measure a compound’s ability to inhibit binding of a canonical ligand substrate, with 0% activity of control corresponding to full inhibition and 100% activity of control to no inhibition. […]

[5] = target: PKAC-beta (Homo sapiens, UniProt P22694); assay: KINOMEscan select kinase screen; type: binding; details: two experiments
Method: as §5, §6

[6] = 500 μM, 5 doses (60 h), individual mice

With `C#CCC(O)(c1ccncc1)c1cc2ccccc2n1S(=O)(=O)c1ccccc1` (centres unmarked) [FKK6] the “Cyp3a11 fold induction, Liver” value ([1]; 500 μM FKK6 gavage every 12 h, 5 doses (60 h), individual mice) was 1.38 fold and 0.89 fold, the “Cyp3a11 fold induction, Large Intestine” value [1, 6] was 2.23 fold and 0.59 fold and the “Cyp3a11 fold induction, Small Intestine” value [1, 6] was 1.06 fold and 0.22 fold and 0.76 fold. For the same molecule, the “mdr1a fold induction, Large Intestine” value [1, 6] was 1.77 fold and 1.33 fold, the “mdr1a fold induction, Liver” value [1, 6] was 1.83 fold and the “mdr1a fold induction, Small Intestine” value [1, 6] was 2.65 fold and 1.8 fold and 0.95 fold. The “mdr1b fold induction, Large Intestine” value [1, 6] was 0.89 fold and 0.42 fold and 0.77 fold, the “mdr1b fold induction, Liver” value [1, 6] was 1.65 fold and 1.12 fold and 0.6 fold and the “mdr1b fold induction, Small Intestine” value [1, 6] was 2.4 fold and 1.54 fold and 0.43 fold. The Cyp3a11 fold expression ([1]; Large Intestine) was 1.73 fold and 2.49 fold and 1.98 fold, the mdr1 fold expression ([1]; Large Intestine) was 1.58 fold and 1.34 fold and 1.57 fold and the Cyp3a11 fold expression ([1]; Liver) was 1.21 fold and 1.31 fold and 1.6 fold. The mdr1 fold expression ([1]; Liver) was 0.95 fold and 0.87 fold and 0.81 fold, the Cyp3a11 fold expression ([1]; Small Intestine) was 1.28 fold and 1.07 fold and 0.75 fold and the mdr1 fold expression ([1]; Small Intestine) was 1.46 fold and 2.26 fold and 1.43 fold. The “PXR target gene (cyp3a11, mdr1a, mdr1b, mdr1) expression across organs” value ([1]; ~500 μM, 36 or 60 h) was “No significant effect”, the fold induction at 60 h, 500 µM ([2]; in vivo, read-out: mdr1a fold induction, Liver) was 1.81 and the fold induction at 60 h, 500 µM ([2]; large intestine, oral, read-out: mdr1a fold induction, Large Intestine) was 1.27. The fold induction at 60 h, 500 µM ([2]; liver, oral, read-out: mdr1a fold induction, Liver) was 3.05, the fold induction at 60 h, 500 µM ([3]; in vivo, read-out: Cyp3a11 fold induction, Large Intestine) was 2.55 and the fold induction at 60 h ([3]; liver, oral, 500 μM FKK6 gavage every 12 h) was 1.72.
For `O=C(c1ccncc1)c1cc2ccccc2n1S(=O)(=O)c1ccccc1` [FKK5, (1-(phenylsulfonyl)-1H-indol-2-yl)(pyridin-4-yl)methanone], the remaining binding at 10 µM ([4]; 10000 nM, read-out: %Ctrl) was 100%, the “%Ctrl” value ([4]; 25000 nM, 25 µM) was 95 %Ctrl and the remaining binding at 25 µM ([4]; 25000 nM, read-out: %Ctrl) was 85%. For the same molecule, the “%Ctrl” value ([5]; 10000 nM, 10 µM) was 100 %Ctrl and 57 %Ctrl and the “%Ctrl” value ([5]; 25000 nM, 25 µM) was 92 %Ctrl and 48 %Ctrl.
